Experimental data: ChEMBL document CHEMBL5226301, “Toward Raman Subcellular Imaging of Endothelial Dysfunction” (J Med Chem, 2021)

assay: Dissociation constant, pKa of compound; assay type: physicochemical

SMILES | pKa
Nc1ccc(C#CC#Cc2ccc(O)cc2)cc1 | 2.8
Oc1c(F)cc(C#CC#Cc2ccccc2)cc1F | 6.2
Nc1ccc(C#CC#Cc2ccccc2)c(O)c1 | 2.7
Oc1ccc(C#CC#Cc2ccccc2)c(F)c1 | 8.5
O=S(=O)(Nc1ccc(C#CC#Cc2ccccc2)cc1)C(F)(F)F | 4.1
C(C#Cc1c[nH]cn1)#Cc1ccccc1 | 4

Second part, the molecule after the results:

pKa | SMILES
2.7 | Nc1ccc(C#CC#Cc2ccccc2)cc1
7.9 | Oc1ccc(C#CC#Cc2ccccc2)cc1F
3.3 | C(C#Cc1ccncc1)#Cc1ccccc1
5 | Nc1cc(C#CC#Cc2ccccc2)ccn1
3.5 | Nc1cccc(C#CC#Cc2ccccc2)c1
9.5 | Oc1ccc(C#CC#Cc2ccccc2)cc1
